Test results published in patent publication US5464865A, “4-aryl- and 4-arylthio-5-hydroxy-2(5H)-furanones as inhibitors of phospholipase A2” (Ortho Pharmaceutical Corporation, priority 1993, dated 1995).

How the values were obtained:
[1] = test system: TPA-induced inflammation in the mouse ear; assay: Topical anti-inflammatory activity: TPA-induced inflammation (edema) in the mouse ear; format: in vivo, mouse (male CD-1); settings: for inhibition in vivo at 100 µg/ear: Mus musculus, @ 100 μg, 5-6 h after TPA; for Inhibition of ear edema, IC50: multiple-dose experiment, dose for 50% inhibition of weight gain
Description: The topical anti-inflammatory activity of the compounds is determined by measuring the degree of inhibition of TPA-induced inflammation in the mouse ear, using essentially the procedure of C. Van Arman, Clin. Pharmacol. Ther., 16, 900 (1974). Male CD-1 mice are used at seven to nine weeks of age. 12-O-tetradecanoylphorbol acetate ([…] in 20 μl of acetone) is dispensed onto the dorsum of the left ear of each mouse, and the right ear is left untreated. Ten mice so treated serve as the control group. […]
After five to six hours, the animals are sacrificed by CO2 inhalation, the ears are removed, and 7 mm circular punch biopsies of are taken from each ear and weighed. The difference in biopsy weight between treated and untreated ears is determined, and the degree of anti-inflammatory activity is expressed in terms of the percent inhibition of ear weight increase relative to the control group. In multiple-dose experiments, varying amounts of the compound to be tested are applied along with the TPA and the results are expressed as the ED50, the dose at which a 50% inhibition of weight gain is observed.

[2] = target: T1, human platelet phospholipase A2 (Homo sapiens, UniProt P14555); assay: Inhibition of human platelet phospholipase A2 (14C-oleate E. coli substrate); format: biochemical; settings: for inhibition at 50 µM: read-out: Inhibition of PLA2, % Inhibition @ 50 μM; for IC50: pH 7.0, 37°, 60 min incubation, read-out: Inhibition of PLA2, IC50
T1 construct: a preparation of human platelet phospholipase A2; from tissue; host or cells: human platelets
T1 sequence (P14555 21-144): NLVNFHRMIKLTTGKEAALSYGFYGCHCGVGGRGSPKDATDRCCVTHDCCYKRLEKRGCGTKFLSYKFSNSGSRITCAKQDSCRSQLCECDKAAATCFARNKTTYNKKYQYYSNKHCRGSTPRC
Description: The activity of the compounds of the invention against phospholipase A2 is determined using a preparation of human platelet phospholipase A2 with a specific activity of 180 nmol/min/mg as the enzyme source. Polypropylene 15-ml test tubes are utilized as the reaction vessels. All drug samples are run in duplicate, with "blank" and "control" (no test compound) groups run in triplicate. […] Test compounds are dissolved in DMSO, and diluted to a projected final concentration of either 50 or 10 μM in 550 μl HEPES buffer at pH 7.0. A 1:7 dilution of human platelet PLA2 in HEPES buffer (5 μl) is added to each test tube, followed by gentle vortexing for 3 seconds. The reaction tubes containing drug, buffer, and enzyme are preincubated for 15 min at 37°, followed by the addition of 25 μl of ^14 C-oleate E. coli substrate. Details regarding this substrate may be found in a publication by S. Ghosh and R. Franson, Biochem. Cell. Biol., 70, 43 (1992), and references therein.
The tubes are immediately vortexed at moderate speed for 3 sec, followed by a 60 min incubation at 37° in a shaking water bath. The reaction is stopped by the addition of 3 ml of a 1:2 chloroform-methanol mixture. Additional water (1.5 ml) and chloroform (1.0 ml) are added, followed by vortexing. The lower phase is removed with a polypropylene transfer pipette, and transferred to a 13×100 mm polypropylene test tube. The organic solvent is evaporated with a stream of nitrogen, the residue is redissolved in 30 μl of a 9:1 chloroform-methanol mixture, and the solution is spotted on a channeled polyester-backed silica gel TLC plate, such as those available under the trade name PE SIL G available from Whatman Inc, Clifton, N.J.
The plate is developed with an 80:20:1 mixture of petroleum ether-diethyl ether-acetic acid. […] The plate is scored above the origin, cut along the score with scissors, and the reactant (origin) and product portions of each channel are put into separate scintillation vials. To each vial is added a scintillation cocktail (15 ml), preferably that sold under the trademark ECOLUME by ICN Biomedicals, Irvine Calif. The vials are shaken vigorously for 5 sec, and the radioactive ^14 C in each vial is measured with a scintillation counter, which provides the counts-per-minute (cpm) for each sample. The obtained cpm values are corrected for the "blank" values.
The percentage of phospholipid hydrolyzed is calculated by the formula:
Phospholipid converted=100×cpm products / (cpm products+cpm
The inhibition of phospholipase A2 by the test compounds is expressed as a percent inhibition relative to the control group:
% Inhibition=[…]

| Inhibition of ear edema, IC50 [1] [µg] | inhibition at 50 µM [2] [%] | IC50 [2] [µM] | Structure (SMILES) | inhibition in vivo at 100 µg/ear [1] [%] |
| --- | --- | --- | --- | --- |
| 27 | 85 | – | CCCCC/C=C/Cc1cc(C2=CC(=O)OC2O)ccc1O (stereo not shown) [Example 38, (E)-5-Hydroxy-4-(4-hydroxy-3-(2-octenyl)phenyl)-2(5H)-furanone] | 78 |
| – | 30 | – | O=C1C=C(c2cccc(Oc3ccccc3)c2)C(O)O1 (stereo not shown) [Example 43, 5-Hydroxy-4-(3-phenoxyphenyl)-2(5H)-furanone] | 52 |
| – | 87 | – | CC1=C(CCCC/C=C(\C)COc2ccc(C3=CC(=O)OC3O)cc2)C(C)(C)CCC1 (stereo not shown) [Example 14, (E)-5-Hydroxy-4-(4-(2-methyl-7-(2,6,6-trimethyl-1-cyclohexen-1-yl)-2-heptenyloxy)phenyl)-2(5H)-furanone] | 4 |
| – | 78 | 8 | CC(C)=CCC/C(C)=C/CSc1ccc(C2=CC(=O)OC2O)cc1 (stereo not shown) [Example 23, (E)-5-Hydroxy-4-(4-(3,7-dimethyl-2,6-octadienyl)thio)phenyl-2(5H)furanone] | 56 |
| 37 | 67 | 19 | O=C1C=C(c2ccc(C#Cc3ccccc3)cc2)C(O)O1 (stereo not shown) [Example 55, 5-Hydroxy-4-(4-(2-phenylethynyl)phenyl)-2(5H)-furanone] | 79 |
| – | 90 | – | O=C1C=C(c2ccc(OCc3ccc(C#Cc4ccccc4)cc3)cc2)C(O)O1 (stereo not shown) [Example 44, 5-Hydroxy-4-(4-((4-(2-phenylethynyl)phenyl)methoxy)phenyl)-2(5H)-furanone] | 43 |
| – | 86 | 9 | C=CCCCCCCCCC(=O)c1ccc(C2=CC(=O)OC2O)cc1 (stereo not shown) [Example 28, 5-Hydroxy-4-(4-(1-oxoundec-10-en-1-yl)phenyl)-2(5H)-furanone] | 0 |
| – | 0 | – | C=CCc1ccc(C2=CC(=O)OC2O)cc1O (stereo not shown) [Example 41, 5-Hydroxy-4-(3-hydroxy-4-(2-propenyl)phenyl)-2(5H)-furanone] | 64 |
| – | 94 | – | CC1=C(CC/C=C(\C)COc2ccc(C3=CC(=O)OC3O)cc2)C(C)(C)CCC1 (stereo not shown) [Example 15, (E)-5-Hydroxy-4-(4-(2-methyl-5-(2,6,6-trimethyl-1-cyclohexen-1-yl)-2-pentenyloxy)phenyl)-2(5H)-furanone] | 49 |
| – | 100 | 5 | CCCCCCC#Cc1ccc(C2=CC(=O)OC2O)cc1 (stereo not shown) [Example 54, 5-Hydroxy-4-(4-(1-octynyl)phenyl)-2(5H)-furanone] | 9 |
| – | 84 | 24 | O=C1C=C(c2ccc(/C=C/CCc3ccccc3)cc2)C(O)O1 (stereo not shown) [Example 36, (E)-5-Hydroxy-4-(4-(4-phenyl-1-butenyl)phenyl)-2(5H)-furanone] | 37 |
| 80 | 92 | 7 | O=C1C=C(c2ccc(C(=O)/C=C/c3ccc4ccccc4c3)cc2)C(O)O1 (stereo not shown) [Example 30, (E)-5-Hydroxy-4-(4-(3-(2-naphthyl)-1-oxo-2-propenyl)phenyl)-2(5H)-furanone] | 66 |
| – | 67 | 1.4 | CC1=C(CCCCCCCOc2ccc(C3=CC(=O)OC3O)cc2)C(C)(C)CCC1 (stereo not shown) [Example 27, 5-Hydroxy-4-(4-(7-(2,6,6-trimethyl-1-cyclohexen-1-30 yl)heptyloxy)phenyl)-2(5H)-furanone] | 35 |
| – | 96 | 5 | CCCCCCCCOc1ccc(SC2=CC(=O)OC2O)cc1 (stereo not shown) [Example 64, 5-Hydroxy-4-(4-(octyloxy)phenylthio)-2(5H)-furanone] | 48 |
| – | 91 | 30 | O=C1C=C(c2ccc(/C=C/c3ccccc3)cc2)C(O)O1 (single isomer, unassigned) [Example 34, (E)-5-Hydroxy-4-(4-(2-phenylethenyl)phenyl)-2(5H)-furanone] | 33 |
| – | 98 | 5 | CCCCCCCCSc1ccc(C2=CC(=O)OC2O)cc1 (stereo not shown) [Example 19, 5-Hydroxy-4-(4-(octylthio)phenyl)-2(5H)furanone] | 20 |
| 106 | 100 | 9 | CC1=C(C/C=C(\C)COc2ccc(C3=CC(=O)OC3O)cc2)C(C)(C)CCC1 (stereo not shown) [Example 16, (E)-5-Hydroxy-4-(4-(2-methyl-4-(2,6,6-trimethyl-1-cyclohexen-1-yl)-2-butenyloxy)phenyl)-2(5H)-furanone] | 43 |
| 300 | 91 | 14 | CCCCCCCCOc1ccc(C2=CC(=O)OC2O)cc1 (stereo not shown) [Example 1, 5-Hydroxy-4-(4-octyloxyphenyl)-2(5H)furanone] | 56 |
| – | 100 | 5 | CCCCCC/C=C/c1ccc(C2=CC(=O)OC2O)cc1 (stereo not shown) [Example 35, (E)-5-Hydroxy-4-(4-(1-octenyl)phenyl)-2(5H)-furanone] | 30 |
| 94 | 95 | 20 | CC1=C(CCC(C)Oc2ccc(C3=CC(=O)OC3O)cc2)C(C)(C)CCC1 (stereo not shown) [Example 39, (E)-5-Hydroxy-4-(4-((1-methyl-3-(2,6,6-trimethyl-1-cyclohexen-1-yl)propyl)oxy)phenyl)-2(5H)-furanone] | 48 |
| – | 93 | 20 | C=CC(CCCCC)Oc1ccc(C2=CC(=O)OC2O)cc1 (stereo not shown) [Example 37, 5-Hydroxy-4-(4-((1-ethenylhexyl)oxy)phenyl)-2(5H)-furanone] | 34 |
| 28 | 75 | – | CC1=C(C/C=C(\C)CSc2ccc(C3=CC(=O)OC3O)cc2)C(C)(C)CCC1 (stereo not shown) [Example 18, (E)-5-Hydroxy-4-(4-(2-methyl-4-(2,6,6-trimethyl-1-cyclohexen-1-yl)-2-butenylthio)phenyl)-2(5H)-furanone] | 70 |
| 87 | 100 | 8 | CC1=C(C/C=C(\C)COc2cccc(C3=CC(=O)OC3O)c2)C(C)(C)CCC1 (stereo not shown) [Example 17, (E)-5-Hydroxy-4-(3-(2-methyl-4-(2,6,6-trimethyl-1-cyclohexen-1-yl)-2-butenyloxy)phenyl)-2(5H)-furanone] | 51 |
| – | 0 | – | COc1ccc(CCNC(=O)c2ccc(C3=CC(=O)OC3O)cc2)cc1OC (stereo not shown) [Example 48, 5-Hydroxy-4-(4-((2-(3,4-dimethoxyphenyl)ethyl)aminocarbonyl)phenyl)-2(5H)-furanone] | – |
| – | 52 | – | CCCCCCCCOc1ccc(C2=CC(=O)OC2O)cn1 (stereo not shown) [Example 69, 5-Hydroxy-4-(6-octyloxy-3-pyridyl)-2(5H)-furanone] | – |
| – | 0 | – | CCCCCCCC(=O)Nc1ccc(C2=CC(=O)OC2O)cc1 (stereo not shown) [Example 21, 5-Hydroxy-4-(4-(1-oxooctylamino)phenyl)-2(5H)furanone] | – |
